The values below come from US7799794B2, “Treatment for cardiovascular disease” (Merck Sharp & Dohme Corp., priority 2000, dated 2010).

In the test the test system is Sprague-Dawley rats. The test is described as follows: Renal findings at 7 weeks: immunohistochemistry and BUN (Example 2). It counts as in vivo, rat. As to conditions: low NaCl diet. How it is done: Rats were placed on a low sodium diet (NaCl, 0.125%) with or without 2% oxonic acid for 7 weeks. A third group were administered allopurinol in the drinking water (150 mg/L) with weekly adjustments of the dose depending on the uric acid level.
Am J Clin Pathol 1957; 28:152.]. Serum blood urea nitrogen was measured by a standard kit (Sigma, St Louis, Mo.).
Renal biopsies were fixed in Methyl-Carnoy's, 10% formalin or 100% ethanol and embedded in paraffin. The presence of uric acid crystals was evaluated by staining 4-μm ethanol-fixed sections with de Galantha and modified Von Kossa stains. Kidney tissue from rats with acute uric acid nephropathy, induced with oxonic acid and uric acid administration was used as a positive control [Stavric, B., Johnson, W. J., and Grice, H. C., Uric acid nephropathy: An experimental model, Proc. Soc. Exp. Biol. Med. 130: 512-16 (1969).]. Light microscopy was performed in 4-μm sections of Methyl-Carnoy's fixed tissue stained with periodic acid Schiff (PAS) reagent or with hematoxylin and eosin.
Methyl-Carnoy's fixed tissue sections were analyzed by indirect immunoperoxidase [Lombardi, D., Gordon , K. L., Polinsky, P., Suga, S., Schwartz, S. M., and Johnson, R. J. Salt sensitive hypertension develops after transient exposure to angiotensin II. Hypertension 33:1013-1019, 1999] staining with the following primary antibodies: OP199, a goat polyclonal antibody against osteopontin (OPN)(gift of C. Giachelli, Univ of Wash., Seattle); ED-1, a monoclonal antibody to rat monocytes and macrophages (Serotec); goat antihuman type III collagen (Southern Biotechnology Associates Inc, Birminghan Ala.); and anti-renin, a mouse antibody to human renin (Sanofi Recherche, Montpellier, France). Sections were incubated with a secondary antibody followed by horseradish peroxidase-conjugated avidin D (Vector Laboratories, Burlingame, Calif.), diaminobenzidine (Sigma) with or without nickel chloride as a chromogen, and counsterstained with methyl green.
NOS1 was detected on formalin fixed tissue sections with a rabbit anti-rat neuronal nitric oxide synthase (Transduction Laboratories, Lexington, Ky.), followed by a biotinylated secondary antibody, diaminobenzidine with nickel chloride and counterstained with nuclear fast red.
All quantification was performed blinded. The tubular expression of osteopontin (OPN), which is a sensitive marker of tubulointerstitial injury, was calculated as the percent of renal cortex occupied by OPN-positive tubules [Lombardi, D., Gordon, K. L., Polinsky, P., Suga, S., Schwartz, S. M., and Johnson, R. J. Salt sensitive hypertension develops after transient exposure to angiotensin II. Hypertension 33:1013-1019, 1999]. Utilizing computer-assisted image analysis software (Optimas V6.2, Media Cybernetics, Silver Springs, Md.) and digitized images, the percent of area occupied by OPN positive tubules per 4 mm^2 field at a magnification of 50× was measured and the mean percent area calculated for each biopsy. The interstitial deposition of collagen type III was calculated as the % of renal cortex occupied by collagen III, noted by immunostaining, by computer image analysis. The mean number of interstitial macrophages (ED-1+cells) in each biopsy was calculated in a blinded manner by counting the total number of positive interstitial cortical cells in 20 sequentially selected 0.25 mm^2 grids at 200× magnification. Renin expression was quantified by the number of glomeruli with positive staining for juxtaglomerular renin using a minimum of 100 glomeruli in each biopsy as previously described [Eng, E., et al., Renal proliferation and phenotypic changes in rats with two-kidney, one-clip Goldblatt hypertension. Am J Hypertens 7:177-185 (1994)]; this has been shown previously to correlate with intrarenal renin content[Eng, E., et al., Renal proliferation and phenotypic changes in rats with two-kidney, one-clip Goldblatt hypertension. Am J Hypertens 7:177-185 (1994)]. […]

On to `O=C(O)c1nc(=O)[nH]c(=O)[nH]1` [oxonic acid], for which, where the note is “control 39.6 ± 2.0”, the Renin turned out to be 60.9 ± 1.5 % positive JGA. Also, the NOS-1 (control 147.2 ± 12.4) is given as 80.4 ± 4.3 positive cells/100 glomeruli. The compound also registered an OPN (mean±SE, control 0.9 ± 0.06) of 1.8 ± 0.06 % increase. Further, the “Type III collagen” value (mean±SE, control 5.4 ± 0.3) is given as 8.8 ± 1.5 %. Moreover, the BUN (mean±SE, control 14.4 ± 1.2) was 23.2 ± 2.3 mg/dL. Besides, for the setting “mean±SE, control 18.3 ± 1.3”, the “ED-1 (macrophages)” value came out at 27.2 ± 1.9 cells/mm2.
